Data published in the NIST ThermoML archive (doi:10.1016/j.jct.2014.07.023).
Several values for one entry are separate records, joined by “and”; a condition that tells them apart may be missing. Equal entries are not always repeated. Numbers after ± are expanded uncertainties.

Legend:
[1] = molar heat capacity at constant pressure; xn = mol fraction of the nth substance listed; conditions: 100 kPa, Liquid, Small sample (50 mg) DSC, x2 = 0
[2] = molar heat capacity at constant pressure; conditions: 101.33 kPa, Liquid, Small sample (50 mg) DSC

SMILES	molar heat capacity at constant pressure ([1]; 293.15 K)	molar heat capacity at constant pressure ([1]; 298.15 K)	molar heat capacity at constant pressure ([1]; 303.15 K)	molar heat capacity at constant pressure ([1]; 308.15 K)	molar heat capacity at constant pressure ([1]; 313.15 K)	molar heat capacity at constant pressure ([1]; 318.15 K)	molar heat capacity at constant pressure ([1]; 323.15 K)	molar heat capacity at constant pressure ([2]; 293.15 K)	molar heat capacity at constant pressure ([2]; 298.15 K)	molar heat capacity at constant pressure ([2]; 303.15 K)	molar heat capacity at constant pressure ([2]; 308.15 K)	molar heat capacity at constant pressure ([2]; 313.15 K)	molar heat capacity at constant pressure ([2]; 318.15 K)	molar heat capacity at constant pressure ([2]; 323.15 K)
CO [methanol] + OCCCCO	80.46 ± 3.4 J/K/mol	81.39 ± 3.5 J/K/mol	82.38 ± 3.5 J/K/mol	83.44 ± 3.5 J/K/mol	84.56 ± 3.6 J/K/mol	85.78 ± 3.7 J/K/mol	87.03 ± 3.7 J/K/mol							
CO [methanol] + CCC(O)CO	80.46 ± 3.4 J/K/mol	81.39 ± 3.5 J/K/mol	82.38 ± 3.5 J/K/mol	83.44 ± 3.5 J/K/mol	84.56 ± 3.6 J/K/mol	85.78 ± 3.7 J/K/mol	87.03 ± 3.7 J/K/mol							
CO [methanol] + CC(O)CCO	80.46 ± 3.4 J/K/mol	81.39 ± 3.5 J/K/mol	82.38 ± 3.5 J/K/mol	83.44 ± 3.5 J/K/mol	84.56 ± 3.6 J/K/mol	85.78 ± 3.7 J/K/mol	87.03 ± 3.7 J/K/mol							
CCC(O)CO (stereo not drawn) [1,2-butanediol]								228.1 ± 9.6 J/K/mol	230.82 ± 9.8 J/K/mol and 230.8 ± 9.8 J/K/mol	233.5 ± 9.9 J/K/mol	236.21 ± 10 J/K/mol	238.91 ± 10 J/K/mol	241.52 ± 10 J/K/mol	244.23 ± 10 J/K/mol
CO [methanol]								80.46 ± 3.4 J/K/mol	81.38 ± 3.5 J/K/mol and 81.39 ± 3.5 J/K/mol	82.38 ± 3.5 J/K/mol	83.44 ± 3.5 J/K/mol	84.56 ± 3.6 J/K/mol	85.78 ± 3.7 J/K/mol	87.03 ± 3.7 J/K/mol
CO [methanol] + CC(O)C(C)O	80.46 ± 3.4 J/K/mol	81.39 ± 3.5 J/K/mol	82.38 ± 3.5 J/K/mol	83.44 ± 3.5 J/K/mol	84.56 ± 3.6 J/K/mol	85.78 ± 3.7 J/K/mol	87.03 ± 3.7 J/K/mol							
CC(O)C(C)O (stereo not drawn) [2,3-butanediol]								233.95 ± 9.9 J/K/mol	236.66 ± 10 J/K/mol and 236.63 ± 10 J/K/mol	239.36 ± 10 J/K/mol	242.07 ± 10 J/K/mol	244.77 ± 10 J/K/mol	247.47 ± 11 J/K/mol	250.18 ± 11 J/K/mol
CC(O)CCO (stereo not drawn) [1,3-butanediol]								215.84 ± 9.2 J/K/mol	218.89 ± 9.3 J/K/mol and 218.9 ± 9.3 J/K/mol	222.06 ± 9.5 J/K/mol	225.21 ± 9.6 J/K/mol	228.37 ± 9.7 J/K/mol	231.61 ± 9.8 J/K/mol	234.86 ± 10 J/K/mol
OCCCCO [1,4-butanediol]								201.15 ± 8.6 J/K/mol	203.79 ± 8.7 J/K/mol and 203.76 ± 8.7 J/K/mol	206.56 ± 8.7 J/K/mol	209.44 ± 8.9 J/K/mol	212.33 ± 9 J/K/mol	215.39 ± 9.1 J/K/mol	218.54 ± 9.3 J/K/mol
